Measurements from patent US20210032806A1, “ANTIMICROBIAL FABRIC TREATMENT” (The Procter & Gamble Company, priority 2019, published 2021).
≈ marks a conversion by molar mass, not a printed value.

How the values were obtained:
Format in all cases: cell-based
[1] = test system: Escherichia coli (E. coli ATCC #8739); assay: Minimum Biocidal Concentration (MBC) in suspension, E. coli; conditions: 6 minutes contact time, 5% horse serum soil load; for MBC: Escherichia coli, ATCC8739, 0.1 h
Experimental: (§1) The antimicrobial efficacy of the antimicrobial agent in the aqueous liquor is determined by measuring its Minimum Biocidal Concentration (MBC). The MBC is defined as the lowest absolute concentration of the particular antimicrobial active which provides complete kill (zero bacterial growth). The MBC of the bispyridinium alkane antimicrobial active is determined against the bacterium, Staphylococcus aureus (S. aureus—ATCC #6538), a gram positive bacterium, and against Escherichia coli (E. coli ATCC #8739) these microorganisms are representative of natural contaminants in many consumer and industrial applications. The bacteria inoculum is prepared by transferring several colonies from a Tryptone Soy Agar (TSA) plate to a saline solution (0.85% NaCl) comprising 5% of horse serum as additional soil load, the bacteria concentration in this saline solution is determined by measuring the % Transmittance at 425 nm and adjusted by either adding more bacteria or more saline solution until the % Transmittance at 425 nm is between 23-25% for S. aureus and 31-33% for E. coli. These % Transmittance values correspond to a bacteria concentration of 10^8 CFU/ml.
(§2) The antimicrobial agent was added to the aqueous liquor to be used in the method of the present invention at a level of 200 ppm, or 100 ppm or 50 ppm. 200 μL of the antimicrobial aqueous liquor was dosed into one well of row A of a 96 well microtiter plate. Each subsequent well (rows B to G) were dosed with 100 μL of the same aqueous liquor, without the addition of the antimicrobial agent. 100 μL of the antimicrobial aqueous liquor was transferred from row A to row B and mixed. 100 μL of the antimicrobial aqueous liquor was then transferred from row B to row C and mixed, and the process repeated to row G. As such, the concentration of the antimicrobial agent underwent two-fold dilution in adjacent wells, while the concentration of any adjunct present in the aqueous liquor remained constant across all the wells in the same column.
10 μL of the 10^8 CFU/ml bacteria suspension in saline was added to wells A to F of the microtiter plate with row G kept as a nil bacteria control. […]
(§3) The antibacterial efficacy of the bispyridinium alkane octenidine hydrochloride was compared to that of N-(3-aminopropyl)-N-dodecylpropane-1,3-diamine (Lonzabac 12.30-Lonza) and n-alkyl dimethyl benzyl ammonium chloride/n-alkyl dimethyl ethylbenzyl ammonium chloride (BTC2125-Stepan) in different aqueous liquors. The minimal biocidal concentration (MBC) in suspension of each antibacterial active against a gram positive bacterium (Staphylococcus aureus) and a gram negative bacterium (Escherichia coli) was determined after 6 minutes contact time.

[2] = test system: Staphylococcus aureus (S. aureus—ATCC #6538); assay: Antibacterial efficacy on cotton fabrics; conditions: cotton fabric, 625 ppm active in liquor with 3750 ppm C12-C14 EO7, 1 h contact; for Number of bacteria recovered from treated fabrics: nil AB reference 9.1 × 10^5 CFU/ml
Experimental: The bactericidal efficacy on fabric surfaces of treatments with antimicrobial aqueous liquors comprising different antimicrobial agents was determined against the bacterium Staphylococcus aureus (S. aureus—ATCC #6538). The bacteria inoculum was prepared by transferring several colonies from a Tryptone Soy Agar (TSA) plate to a saline solution (0.85% NaCl) comprising 5% horse serum as additional soil load, the bacteria concentration in this saline solution was determined by measuring the % Transmittance at 425 nm and adjusted by either adding more bacteria or more saline solution until the % Transmittance at 425 nm is between 23-25% which corresponds to a bacteria concentration of 10^8 CFU/ml.
Fabric carriers, 1 cm×1 cm disks of cotton sterilized by autoclaving, were inoculated with 30 μL of the 10^8 CFU/ml bacteria inoculum and incubated for 20 mins at 32° C. After this incubation period, 3 fabric carriers were placed within bundles of 10 clean sterile cotton disks and secured by placing a sterile 30 mm paperclip to the edge of the bundle. The fabric bundles were placed in 30 ml of antimicrobial aqueous liquors to be used in the method of the present invention comprising 3750 ppm of C12-C14 EO7 alkyl ethoxylate non ionic surfactant and 625 ppm of either bispyridinium alkane (octenidine dihydrochloride), N-(3-aminopropyl)-N-dodecylpropane-1,3-diamine (Lonzabac 12.30) or benzalkonium chloride (Sigma-Aldrich CAS number 63449-41-2) as antimicrobial actives. The contact time between the bacteria in the fabric carriers and the antimicrobial aqueous liquor was 1 h. After this contact time, each fabric bundle was rinsed for 5 minutes with water and the 3 fabric carries transferred to 9 ml of neutralizer solution (Modified Letheen Broth+1.5% Polysorbate 80, supplied by BioMérieux) to stop the antimicrobial action of the antimicrobial active. The neutralizer tube containing the fabric carriers was vortexed in a Genie 2 vortexer set at speed 7 for 30 seconds. Ten-fold dilutions of the neutralizer+fabric carrier solution were prepared by transferring 1 ml of the neutralizer solution to 9 ml of neutralizer solution, this solution was further diluted in neutralizer solution following the same protocol so that serial ten-fold dilutions were obtained. 100 μL of each of the serial dilutions were plated on a TSA plate, plates were incubated at 32° C. for 18 hours, after this incubation time, the number of colonies in each plate was counted. The target dilution used to determine the bactericidal efficacy of aqueous liquor of the method of the present invention was the one delivering 30-300 CFU in the plate, the data reported for each antimicrobial active is the average of the bacteria number in three plates multiplied by the target dilution. The log reduction for each antibacterial treatment vs nil antibacterial active reference is the log 10 of the number obtained by dividing the number of colonies recovered from the fabrics treated with the nil antibacterial reference aqueous liquor by the number of colonies recovered from the fabrics treated with aqueous liquors comprising the different antimicrobial actives.
Cotton fabrics inoculated with bacteria were treated for 1 hour with aqueous liquors comprising 3750 ppm of C12-C14 EO7 alkyl ethoxylate non ionic surfactant and either no antibacterial active (ref) or 625 ppm of octenidine hydrochloride, 625 ppm of Lonzabac 12.30 or 625 ppm of benzalkonium chloride as antibacterial actives. After the treatment, the bacteria remaining on the treated fabrics were extracted and quantified. It can be seen that the treatment done with the aqueous liquor comprising octenidine hydrochloride provides better antibacterial efficacy, i.e. less bacteria remaining on fabrics, and higher log reduction, than the treatments done with aqueous liquors comprising either Lonzabac or benzalkonium chloride.

[3] = test system: Staphylococcus aureus (S. aureus—ATCC #6538); assay: Minimum Biocidal Concentration (MBC) in suspension, S. aureus; conditions: 6 minutes contact time, 5% horse serum soil load
Experimental: as §1, §2
10 μL of the 10^8 CFU/ml bacteria suspension in saline was added to wells A to F of the microtiter plate with row G kept as a nil bacteria control. The final volume in each well was 110 μL, except for row G which comprised 100 μL of the hard surface cleaning composition and no bacteria suspension. Bacterial inoculation to each column was staggered by 30 seconds to allow for equal incubation times in all wells so that the contact time between the bacteria and the antimicrobial active for all samples was 6 mins. After this contact time, 10 μL of each test solution was transferred to 90 μL of neutraliser solution (Modified Letheen Broth+1.5% Polysorbate 80, supplied by BioMérieux) to stop the antimicrobial action of the antimicrobial active matching the stagger of the inoculation. 2 μL of this solution was plated onto a TSA plate matching the stagger of the inoculation so that all samples are exposed to the neutralizer for the same period of time. The plate is incubated at 32.5° C. for 24-48 h for S. aureus, and 24 h for E. coli. MBC concentration is taken as the lowest concentration of the antimicrobial active at which no visible colony growth is observed on the TSA plate.
as §3

[4] = aqueous liquor 7: Octyliminodipropionate (Ampholak YJH 40) 0.0062%
[5] = aqueous liquor 8: C12-C14 EO7 alcohol ethoxylate 0.0062%
[6] = aqueous liquor 2: Octyliminodipropionate (Ampholak YJH 40) 0.1%
[7] = aqueous liquor 3: C12-C14 EO7 alcohol ethoxylate 0.1%
[8] = aqueous liquor 5: Sodium lauroamphohydroxypropylsulfonate (Miranol JS) 0.0062%

## CCCCCCCCCCCCN(CCCN)CCCN [Lonzabac 12.30, N-(3-aminopropyl)-N-dodecylpropane-1,3-diamine]
[1]; [4]
  MBC: 50 µg/mL (≈ 167 µM)
[1]; [5]
  MBC: 25 µg/mL (≈ 83.5 µM)
[2]
  Log reduction vs treatment with nil AB active reference: Log 0.7
  Number of bacteria recovered from treated fabrics: 1.9 × 10^5 CFU/ml
[3]; Staphylococcus aureus, ATCC6538, 0.1 h, aqueous liquor 1: deionized water
  MBC: 25 µg/mL (≈ 83.5 µM)
[3]; [6]
  MBC S. aureus: 25 ppm
[3]; [7]
  MBC S. aureus: 25 ppm
[3]; aqueous liquor 4: Disodium capryloamphodiacetate (Mackam 2CY75) 0.025%
  MBC S. aureus: 25 ppm
[3]; [8]
  MBC S. aureus: 25 ppm

## CCCCCCCCN=c1ccn(CCCCCCCCCCn2ccc(=NCCCCCCCC)cc2)cc1.Cl.Cl [Octenidine, octenidine dihydrochloride]
[1]; [4]
  MBC E. coli: 3.125 ppm
[1]; [5]
  MBC E. coli: 6.25 ppm
[2]
  Log reduction vs treatment with nil AB active reference: Log 2.5
  Number of bacteria recovered from treated fabrics: 2.8 × 10^3 CFU/ml
[3]; aqueous liquor 1: deionized water
  MBC S. aureus: 3.125 ppm
[3]; [6]
  MBC S. aureus: 3.125 ppm
[3]; [7]
  MBC S. aureus: 6.25 ppm
[3]; [8]
  MBC S. aureus: 3.125 ppm

## benzalkonium chloride
[2]
  Log reduction vs treatment with nil AB active reference: Log 1.2
  Number of bacteria recovered from treated fabrics: 5.8 × 10^4 CFU/ml
